Results on 3 compounds are retold here after patent USRE40707E1, “Use of carbazole compounds for the treatment of congestive heart failure” (SB Pharmco Puerto Rico Inc., priority 1995, dated 2009).

The test system of assay [1] is acute myocardial infarction. The note with it: canine model of acute myocardial infarction; cited from earlier work.
The subject of assay [2] is patients with CHF. Kind of assay: U.S. Carvedilol Heart Failure Trials: mortality studies in CHF patients. Format: in vivo, human. The conditions noted are these: for Risk reduction of mortality / Risk reduction, All Cause Mortality: vs placebo; for All Cause Mortality (%) / Risk reduction, All Cause Mortality: all patients; for All Cause Mortality (%): class II-IV CHF, intention-to-treat, placebo 8.2%; for Risk reduction, All Cause Mortality: 95% CI 42-81. An excerpt:
To determine if β-adrenergic blockade might inhibit the deleterious effects of the sympathetic nervous system on survival in heart failure (CHF), 1052 patients with CHF were prospectively enrolled into a multicenter trial program, in which the patients were randomly assigned (double-blind) to 6-12 months' treatment with placebo (PBO) or carvedilol (CRV). After a common screening period, patients with class II-IV CHF (see next paragraph for the definitions of the classification of CI) and an ejection fraction <0.35 were assigned to one of four protocols based on performance on a 6-minute walk test. PBO or CRV was added to existing therapy with digoxin, diuretics and an ACE inhibitor. All-cause mortality was monitored by a prospectively constituted Data and Safety Monitoring Board (DSMB). After 25 months of enrollment, the DSMB recommended termination of the program because of a favorable effect of CRV on survival. By […], mortality was 8.2% in the PBO group but only 2.9% in the CRV group (P=0.0001. Cochran-Mantel-Haensel analysis). This represented a reduction in risk of death by CRV of 67% (95% CI: 42% to 81%). The treatment effect was similar in patients with class II and class III-IV symptoms. Mortality was reduced in class II patients from 5.9% to 1.9%, a 68% reduction (95% CI: 20% to 97%) [P=0.015,), and in class III-IV patients from 11.0% to 4.2%. a 67% reduction (95% CI 30% to 84%), [P=0.004, a log-rank]. Importantly, the effect of CRV was similar in ischematic heart disease (risk reduced by 67%. P=0.003) and in nonischemic dilated cardiomyopathy (risk reduced by 67%. P=0.014). […] The treatment effect is seen across a broad range of severity and etiology of disease.
Patients on background therapy with diuretics. ACE inhibitors and/or digoxin were stratified on the basis of baseline […] exercise performance, into one of four trials: • study 220, a dose response study in moderate (NYHA II-IV) CHF with exercise testing as a primary endpoint • study 221, a dose titration study in moderate (NYHA II-IV) CI with exercise testing as a primary endpoint • study 239, a dose titration study in severe (NYHA III-IV) CHF with quality of life as a primary endpoint • study 240, a dose titration study in mild (NYHA II—III) CHF with progression of CHF as a primary endpoint
Sixty-four centers in the US participated in the trial program. All sites conducted protocols 239 and 240, while 33 performed protocol 220 and 31 performed protocol 221.
Although each trial had its own individual objectives, the overall program objective defined prospectively was evaluation of all-cause mortality. Based upon a projected enrollment of 1100 patients, the program had 90% power to detect a 50% reduction in mortality (two-sided) between carvedilol and placebo, assuming a mortality rate in the placebo group of 12% over the duration of the trials (α=0.05).
Randomization was preceded by a screening and challenge period common to the four protocols. The purpose of the screening period was to quality patients for study entry obtain reproducible baseline measurements, and stratify patients into the appropriate trial based on submaximal exercise testing. During the challenge period, patients received low-dose open-label carvedilol (6.25 mg b.i.d.) for two weeks. […] Patients tolerating low-dose carvedilol were then randomized to blinded medication (carvedilol or placebo) with the dose titrated over several weeks in the range of 6.25 to 50 mg b.i.d. (or equivalent level of placebo). The maintenance phase of each study ranged from six to 12 months, after which patients had the option of receiving open-label carvedilol in an extension study.
The analysis presented below corresponds to the data set on which the DSMB made the recommendation to terminate the trials. Included in this […] analysis are all patients enrolled in the US trials as of Jan. 20, […]; 624 receiving carvedilol and 356 placebo. […]

Assay [3] relates to acute myocardial infarction. The conditions noted are these: rat model of acute myocardial infarction; cited from earlier work.
Assay [4] relates to acute myocardial infarction. The note with it: porcine model of acute myocardial infarction; cited from earlier work.
Assay [5] relates to patients with CHF. The conditions noted are these: treatment of CHF; cited from earlier work.

Read-outs that look alike come from different tables or passages of the source.

For `COc1ccccc1OCCNCC(O)COc1cccc2[nH]c3ccccc3c12` (centres unmarked) [Carvedilol], the infarct size entry in assay [1], in assay [3] and in assay [4] was “markedly reduces infarct size” throughout. Also, the “Risk reduction of mortality” value with patients with CHF [2] (Class II CHF, 95% CI 20-97) is given as 68%; with patients with CHF [2] (Class II CHF, 95% CI 20-97, listed as CRV) it was 68%; in the assay with patients with CHF [2] (Class III-IV CHF, 95% CI 30-84), 66%; with patients with CHF [2] (Class III-IV CHF, 95% CI 30-84, listed as CRV), 67%; in the assay on patients with CHF [2] (Ischemic Etiology, 95% CI 32-85), 67%; in the assay on patients with CHF [2] (Ischemic Etiology, 95% CI 32-85, listed as CRV), 67%. Also, the “Risk reduction of mortality” value with patients with CHF [2] (Non-Ischemic Etiology, 95% CI 20-86) stood at 67%; in the assay with patients with CHF [2] (Non-Ischemic Etiology, 95% CI 20-86, listed as CRV), 67%. Moreover, the “Mortality (%)” value in the assay on patients with CHF [2] (Class II CHF, placebo 5.9%) was “(1.9%)”; in the assay on patients with CHF [2] (Class II CHF, placebo 5.9%, listed as CRV), 1.9%; in the assay on patients with CHF [2] (Class III-IV CHF, placebo 11.0%) it was “(4.2%)”; in the assay with patients with CHF [2] (Class III-IV CHF, placebo 11.0%, listed as CRV) it was 4.2%; in the assay with patients with CHF [2] (Ischemic Etiology, placebo 8.9%), “(3.2%)”; with patients with CHF [2] (Non-Ischemic Etiology, placebo 7.3%), “(2.5%)”. For the same compound, the “All Cause Mortality (%)” value was “(2.9%)” in the assay with patients with CHF [2] and 2.9% in the assay on patients with CHF [2] (listed as CRV). The “Risk reduction, All Cause Mortality” value with patients with CHF [2] and with patients with CHF [2] (listed as CRV) was 67% each time.

On to `CC(C)NCC(O)COc1ccc(COCCOC(C)C)cc1` (centres unmarked) [bisoprolol], for which, in the assay on patients with CHF [5], the “mortality, drug-treated vs placebo-treated patients” value is reported as “no difference in mortality”.

With `COCCc1ccc(OCC(O)CNC(C)C)cc1` (centres unmarked) [metoprolol], in the assay on patients with CHF [5], the “mortality, drug-treated vs placebo-treated patients” value is reported as “no difference in mortality”.
